The values below come from US20250002526A1, “PHARMACEUTICAL COMPOSITION HAVING ANTI-CANCER IMMUNOSTIMULATING EFFECT AND/OR IMMUNE CHECKPOINT INHIBITION POTENTIATING EFFECT” (KYUSHU UNIVERSITY, NATIONAL UNIVERSITY CORPORATION, priority 2021, published 2025).

The assay relates to SULT2B1b-mediated CS production in E0771-SULT cells. Briefly: CS production inhibitory effect in E0771-SULT cells (LC/MS/MS quantification of CS). The class given is cell-based, mouse. Conditions: for activity at 20 µM / activity at 10 µM / IC50 / activity at 1 µM: Mus musculus; for activity at 10 µM: relative to control (100%); for IC50: read-out: IC50 value (CS production); for activity at 1 µM: compound groups B-D. As to the method:
CS in each human cancer tissue sample was quantified by a method described in NPL 2. To monitor the amounts of CS and/or oxysterol generated in E0771, 3LL, EG.7-OVA, and MC38 cells irrespective of the presence or absence of SULT2B1b expression, cells of each type were seeded in a 6-well plate at 5×10^5 cells/well, and the culture supernatant and cell pellet were collected after 24 hours. Subsequently, deuterium-labeled internal standard (IS) compounds (d7-CS [[…]] and d6-25-hydroxycholesterol) were added to fractions of the culture supernatant and cell pellet, each of which was subjected to extraction with 1 mL of extraction solvent (methanol/chloroform/water=5:2:2 [v/v/v]) to extract CS and oxysterol from the culture supernatant or cell pellet.
Each sample was vigorously mixed with a vortex for 1 minute, and then ultrasonicated for 5 minutes. Thereafter, the sample was centrifuged at 16,000×g and 4° C. for 5 minutes, and the supernatant (700 μl) was collected in a clean tube. Into this, 235 μl of chloroform and 155 μl of water were added and mixed, and the resultant was then subjected to vortexing followed by centrifugation to separate into an aqueous layer and an organic layer. Subsequently, 200 μl of the lowermost layer was dried under a nitrogen flow.
The dried sample was dissolved in 50 μl of methanol, and CS and oxysterol therein were quantified by liquid chromatography-tandem mass spectrometry (LC/MS/MS) with a triple quadrupole mass spectrometer (LCMS-8060; Shimadzu Corporation) equipped with an electrospray ionization (ESI) ion source in a multiple reaction monitoring (MRM) mode.
• Column: Inertsil ODS-4 (2.1×150 mm; particle size: 3 μm; GL Sciences Inc.) • Column temperature: 40° C. • Flow rate: 0.3 ml/min • Mobile phase: (A) water/acetonitrile (1:2, v/v) containing 5 mM ammonium acetate (B) Methanol/Isopropanol (1:19, v/v) Containing 5 mM Ammonium Acetate • Gradient curve: 0 min→22 min: (B) 0%→100%, • 22 min→27 min: (B) 100%, • 27 min→27.1 min: (B) 100%→0%, • 27.1 min→30 min: (B) 0% • Injection volume: 5 μl • Mass spectrometry mode: positive and negative ion modes • Electrospray voltage: 4 kV in positive ion mode, −3.5 kV in negative ion mode • Nebulizer gas flow rate: 3.0 L/min • Drying gas flow rate: 10.0 L/min • Desolvation temperature: 250° C. • Heat block temperature: 400° C. • Detector voltage: 2.16 kV • Used were MRM mode and 2 msec of dwell time per channel.
Absolute CS and oxysterol contents were calculated from calibration curves. MRM calibration curves were prepared with chromatographic peak areas for the analytes relative to peak areas for internal standards through three times of analysis for standard solutions.
The CS production effects of test compounds (compounds 1 to 19, 21, 23, 25, and 27 to 32) were evaluated with the mouse breast cancer cell line E0771 expressing SULT2B1b (E0771-SULT cells).
Specifically, as in the above description in experimental procedure (12), E0771-SULT cells were seeded in a 6-well plate at a proportion of 5×10^5 cells/well, and cultured in the presence or absence (control) of each test compound for 24 hours. After culturing, CS generated in E0771-SULT cells was quantified by LC/MS/MS according to the description in experimental procedure (12). The CS production capacity (% activity) of cells cultured in the presence of each test compound was evaluated from the percentage relative to the CS production level (control) (100%) in E0771-SULT cells cultured in the absence of the test compound, and the CS production inhibitory effect of the test compound was evaluated.

Setting [1] is: 24 h, read-out: CS production % activity at 20 μM, E0771-SULT cells, 24 hours, test compound 20 μM, relative to control without compound (100%).
The mark [2] stands for this setting: E0771-SULT cells, 24 hours, test compound 20 μM, relative to control without compound (100%), read-out: CS production % activity at 20 μM.
[3] abbreviates: 24 h, E0771-SULT cells, 24 hours, test compound 20 μM, relative to control without compound (100%), read-out: CS production % activity at 20 μM.
Where [4] appears, read: 24 h, read-out: CS production % activity at 10 μM, E0771-SULT cells, 24 hours, test compound 10 μM (Table 1).
Where [5] appears, read: 24 h, read-out: CS production % activity at 10 μM, E0771-SULT cells, 24 hours, third concentration column of Table 1, head again printed 10 μM.

Counter-ions that a name gives are not always drawn. Like-named read-outs stand apart in the source and are kept apart here.

Consider `C[C@H](CCC(=O)N1CCOCC1)[C@H]1CC[C@H]2[C@@H]3CC=C4C[C@@H](O)CC[C@]4(C)[C@H]3CC[C@]12C` [Compound 11, (R)-4-((3S,8S,9S,10R,13R,14S,17R)-3-hydroxy-10,13-dimethyl-2,3,4,7,8,9,10,11,12,13,14,15,16,17-tetradecahydro-1H-cyclopenta[a]phenanthren-17-yl)-1-morpholinopentan-1-one], for which the activity at 20 µM under setting [1] worked out at 87.4%.
Regarding `C[C@H](CCC(=O)O)[C@H]1CC[C@H]2[C@@H]3CC[C@@H]4C[C@H](O)CC[C@]4(C)[C@H]3CC[C@]12C` [Compound 14, (4R)-4-[(3R,5R,8R,9S,10S,13R,14S,17R)-3-hydroxy-10,13-dimethyl-2,3,4,5,6,7,8,9,11,12,14,15,16,17-tetradecahydro-1H-cyclopenta[a]phenanthren-17-yl]pentanoic acid], under setting [2], the activity at 20 µM worked out at 31.5%. For the same molecule, where the note is “E0771-SULT cells, 24 hours, third concentration column of Table 1, head again printed 10 μM, read-out: CS production % activity at 10 μM”, the activity at 10 µM stood at 62%. For the same molecule, the IC50 (E0771-SULT cells) came out at 7.2 µM.
As for `C#C[C@]1(O)CC[C@H]2[C@@H]3CC=C4C[C@@H](O)CC[C@]4(C)[C@H]3CC[C@@]21C` [Compound 29, (3S,8R,9S,10R,13S,14S,17R)-17-ethynyl-10,13-dimethyl-2,3,4,7,8,9,10,11,12,13,14,15,16,17-tetradecahydro-1H-cyclopenta[a]phenanthrene-3,17-diol], the IC50 is 11.8 µM. Also, the activity at 1 µM (24 h, read-out: CS production % activity at 1 μM, E0771-SULT cells, 24 hours) is 50.1%. The activity at 20 µM under setting [1] was found to be 45%.
As to `C#CCOCCOCCNC(=O)CC[C@@H](C)[C@H]1CC[C@H]2[C@@H]3CC=C4C[C@@H](OS(=O)(=O)O)CC[C@]4(C)[C@H]3CC[C@]12C` [Compound 23, (3S,8S,9S,10R,13R,14S,17R)-10,13-dimethyl-17-((R)-5-oxo-5-((2-(2-(prop-2-yn-1-yloxy)ethoxy)ethyl)amino)pentan-2-yl)-2,3,4,7,8,9,10,11,12,13,14,15,16,17-tetradecahydro-1H-cyclopenta[a]phenanthren-3-yl sulfate], the activity at 20 µM under setting [1] is 70.1%.
As for `COC(=O)CC[C@@H](C)[C@H]1CC[C@H]2[C@@H]3CC=C4C[C@@H](OC)CC[C@]4(C)[C@H]3CC[C@]12C` [Compound 5, methyl (R)-4-((3S,8S,9S,10R,13R,14S,17R)-3-methoxy-10,13-dimethyl-2,3,4,7,8,9,10,11,12,13,14,15,16,17-tetradecahydro-1H-cyclopenta[a]phenanthren-17-yl)pentanoate], under setting [3], the activity at 20 µM came to 92.3%.
With `C[C@H](CCC(=O)O)[C@H]1CC[C@H]2[C@@H]3CC=C4C[C@@H](OC(=O)C(F)(F)F)CC[C@]4(C)[C@H]3CC[C@]12C` [Compound 2, (R)-4-((3S,8S,9S,10R,13R,14S,17R)-10,13-dimethyl-3-(2,2,2-trifluoroacetoxy)-2,3,4,7,8,9,10,11,12,13,14,15,16,17-tetradecahydro-1H-cyclopenta[a]phenanthren-17-yl)pentanoic acid], the IC50 is 6 µM. Besides, under setting [4], the activity at 10 µM stood at 34%. Under setting [5], the activity at 10 µM stood at 52.5%. For the same molecule, the activity at 20 µM under setting [1] worked out at 36.8%.
For the molecule `C[C@H](CCC(=O)N1CCOCC1)[C@H]1CC[C@H]2[C@@H]3CC=C4C[C@H](n5cc(CN(C)C)nn5)CC[C@]4(C)[C@H]3CC[C@]12C` [Compound 13, (R)-4-((3R,8S,9S,10R,13R,14S,17R)-3-(4-((dimethylamino)methyl)-1H-1,2,3-triazol-1-yl)-10,13-dimethyl-2,3,4,7,8,9,10,11,12,13,14,15,16,17-tetradecahydro-1H-cyclopenta[a]phenanthren-17-yl)-1-morpholinopentan-1-one], under setting [1], the activity at 20 µM amounted to 65.8%.
`C#CCOCCOCCOCCOCCOCCOCCNC(=O)CC[C@@H](C)[C@H]1CC[C@H]2[C@@H]3CC=C4C[C@@H](OS(=O)(=O)O)CC[C@]4(C)[C@H]3CC[C@]12C` [Compound 27, (3S,8S,9S,10R,13R,14S,17R)-10,13-dimethyl-17-((R)-23-oxa-4,7,10,13,16,19-hexaoxa-22-azaheptacos-1-yn-26-yl)-2,3,4,7,8,9,10,11,12,13,14,15,16,17-tetradecahydro-1H-cyclopenta[a]phenanthren-3-yl sulfate]: the “CS production % activity at 20 μM” value (E0771-SULT cells, 24 hours, test compound 20 μM, relative to control without compound (100%)) turned out to be 59.0%.
Take `CC(=O)C1=CC[C@H]2[C@@H]3CC[C@H]4C[C@H](OC(=O)CCN5CCOCC5)CC[C@]4(C)[C@H]3CC[C@]12C` [Compound 16, (3R,5S,8R,9S,10S,13S,14S)-17-acetyl-10,13-dimethyl-2,3,4,5,6,7,8,9,10,11,12,13,14,15-tetradecahydro-1H-cyclopenta[a]phenanthren-3-yl3-morpholinopropanoate]: the IC50 was 9.6 µM. Also, the activity at 10 µM under setting [4] was 49.9%. In addition, the activity at 10 µM under setting [5] is 55.7%. Also, the activity at 20 µM under setting [1] came out at 42.3%.
In the case of `C#CC1(O)CCC2C3CCC4=CC(=O)CCC4C3CCC21C` (stereo not drawn) [Compound 31, 19-norethindrone, reference compound], the activity at 20 µM under setting [2] is 77.5%. The activity at 1 µM (E0771-SULT cells, 24 hours, read-out: CS production % activity at 1 μM) was 82.8%. Also, where the note is “E0771-SULT cells”, the IC50 was found to be 68.4 µM.
Consider `COC(=O)C1CCCN1C(=O)CCC(=O)OCC(=O)C1(OC(C)=O)CCC2C3CCC4=CC(=O)CCC4(C)C3CCC21C` [Compound 18, methyl (4-(2-8((8R,9S,10R,13S,14S,17R)-17-acetoxy-10,13-dimethyl-3-oxo-2,3,6,7,8,9,10,11,12,13,14,15,16,17-tetradecahydro-1H-cyclopenta[a]phenanthren-17-yl)-2-oxoethoxy)-4-oxobutanoyl)-L-prolinate], for which the IC50 is 16 µM. The activity at 10 µM under setting [4] was found to be 60.6%. Moreover, the activity at 10 µM under setting [5] was found to be 71.7%. Also, the activity at 20 µM under setting [1] is 54.8%.
With `C#CCOCCOCCOCCOCCNC(=O)CC[C@@H](C)[C@H]1CC[C@H]2[C@@H]3CC=C4C[C@@H](OS(=O)(=O)O)CC[C@]4(C)[C@H]3CC[C@]12C` [Compound 25, (3S,8S,9S,10R,13R,14S,17R)-10,13-dimethyl-17-((R)-17-oxo-4,7,10,13-tetraoxa-16-azahenicos-1-yn-20-yl)-2,3,4,7,8,9,10,11,12,13,14,15,16,17-tetradecahydro-1H-cyclopenta[a]phenanthren-3-yl sulfate], under setting [1], the activity at 20 µM stood at 60.1%.
On to `CC1(C2CC[C@H]3[C@@H]4CC=C5C[C@@H](O)CC[C@]5(C)[C@H]4CC[C@]23C)CS1` (stereo partly drawn) [Compound 32, (3S,8S,9S,10R,13S,14S)-10,13-dimethyl-17-(2-methylthiiran-2-yl)-2,3,4,7,8,9,10,11,12,13,14,15,16,17-tetradecahydro-1H-cyclopenta[a]phenanthren-3-ol], for which, under setting [3], the activity at 20 µM stood at 54.8%. Further, the activity at 1 µM (24 h, E0771-SULT cells, 24 hours, read-out: CS production % activity at 1 μM) is 49.7%. Also, where the note is “E0771-SULT cells”, the IC50 was 12.8 µM.
